Earlier results, collected in PMC11491004, “CHF6523 data suggest that the phosphoinositide 3-kinase delta isoform is not a suitable target for the management of COPD” (Respiratory Research, 2024).

What was measured:
sputum IL-6 and IL-8 = test system: sputum IL-6 and IL-8; design: method as in PMID 28823947; conditions: patients with COPD; cited from earlier work
PI3Kδ [1] = target: T1, PI3Kδ (Homo sapiens, UniProt O00329); design: method as in ref 14 = [14]; 14. Wilson R Cahn A Montembault M Green J Musani N Begg M Safety, tolerability, pharmacokinetics (PK) and pharmacodynamics (PD) of single (SD) and repeat (RD) inhaled doses of a novel phosphoinositide; conditions: healthy volunteer study; Day 12; cited from earlier work
PI3Kδ [2] = target: T1, PI3Kδ; design: from tissue; host or cells: induced sputum of COPD patients (in vivo dosing by inhalation); method as in PMID 30886125; conditions: healthy smokers; cited from earlier work
PI3Kδ [3] = target: T1, PI3Kδ; design: from tissue; host or cells: induced sputum of COPD patients (in vivo dosing by inhalation); method as in PMID 36841351; conditions: activated PI3Kδ syndrome; cited from earlier work
[4] = design: method as in PMID 34113095; conditions: cited from earlier work
[5] = test system: sputum IL-5, IL-13, IL-6 or IL-8; design: method as in PMID 30217958; conditions: patients with asthma; cited from earlier work
airway inflammation = test system: airway inflammation; design: method as in ref 12 = [12]; 12. Blomqvist S Andreasson T Arlbrandt S Bold P Bjorhall K Brülls M In vivo dual Pi3kγδ inhibition in a rat model of pulmonary inflammation - evidence of local therapeutic activity Am J Respir Crit Ca; conditions: cited from earlier work

T1 sequence (O00329 whole entry): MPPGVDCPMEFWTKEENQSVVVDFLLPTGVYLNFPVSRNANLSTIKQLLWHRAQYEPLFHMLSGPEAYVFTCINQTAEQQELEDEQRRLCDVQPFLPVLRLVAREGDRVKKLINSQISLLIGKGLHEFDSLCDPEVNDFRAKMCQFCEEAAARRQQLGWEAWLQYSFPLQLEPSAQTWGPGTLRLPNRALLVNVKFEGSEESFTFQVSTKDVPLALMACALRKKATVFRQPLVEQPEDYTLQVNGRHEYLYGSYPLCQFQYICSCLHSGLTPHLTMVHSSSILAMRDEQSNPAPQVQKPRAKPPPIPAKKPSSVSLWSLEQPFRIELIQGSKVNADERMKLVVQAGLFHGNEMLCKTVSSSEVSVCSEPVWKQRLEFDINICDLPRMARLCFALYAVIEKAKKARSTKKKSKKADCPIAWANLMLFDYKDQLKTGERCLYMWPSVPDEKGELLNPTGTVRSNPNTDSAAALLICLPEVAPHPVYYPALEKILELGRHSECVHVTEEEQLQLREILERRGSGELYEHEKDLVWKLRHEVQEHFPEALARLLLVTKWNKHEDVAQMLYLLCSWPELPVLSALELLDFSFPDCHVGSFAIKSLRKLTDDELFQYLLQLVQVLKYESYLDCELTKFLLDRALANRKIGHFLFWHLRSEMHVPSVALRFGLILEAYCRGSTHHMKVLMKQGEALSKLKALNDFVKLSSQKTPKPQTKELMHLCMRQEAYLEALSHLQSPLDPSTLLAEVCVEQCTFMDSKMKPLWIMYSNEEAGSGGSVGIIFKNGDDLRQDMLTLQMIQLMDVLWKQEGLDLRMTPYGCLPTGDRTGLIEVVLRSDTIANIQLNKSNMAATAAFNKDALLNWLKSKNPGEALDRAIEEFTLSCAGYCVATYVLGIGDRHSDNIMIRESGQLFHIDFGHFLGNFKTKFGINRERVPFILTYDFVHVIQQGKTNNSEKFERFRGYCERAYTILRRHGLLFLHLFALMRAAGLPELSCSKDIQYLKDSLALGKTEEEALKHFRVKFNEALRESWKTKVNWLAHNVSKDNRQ
T1 sequence (P27986 whole entry partner): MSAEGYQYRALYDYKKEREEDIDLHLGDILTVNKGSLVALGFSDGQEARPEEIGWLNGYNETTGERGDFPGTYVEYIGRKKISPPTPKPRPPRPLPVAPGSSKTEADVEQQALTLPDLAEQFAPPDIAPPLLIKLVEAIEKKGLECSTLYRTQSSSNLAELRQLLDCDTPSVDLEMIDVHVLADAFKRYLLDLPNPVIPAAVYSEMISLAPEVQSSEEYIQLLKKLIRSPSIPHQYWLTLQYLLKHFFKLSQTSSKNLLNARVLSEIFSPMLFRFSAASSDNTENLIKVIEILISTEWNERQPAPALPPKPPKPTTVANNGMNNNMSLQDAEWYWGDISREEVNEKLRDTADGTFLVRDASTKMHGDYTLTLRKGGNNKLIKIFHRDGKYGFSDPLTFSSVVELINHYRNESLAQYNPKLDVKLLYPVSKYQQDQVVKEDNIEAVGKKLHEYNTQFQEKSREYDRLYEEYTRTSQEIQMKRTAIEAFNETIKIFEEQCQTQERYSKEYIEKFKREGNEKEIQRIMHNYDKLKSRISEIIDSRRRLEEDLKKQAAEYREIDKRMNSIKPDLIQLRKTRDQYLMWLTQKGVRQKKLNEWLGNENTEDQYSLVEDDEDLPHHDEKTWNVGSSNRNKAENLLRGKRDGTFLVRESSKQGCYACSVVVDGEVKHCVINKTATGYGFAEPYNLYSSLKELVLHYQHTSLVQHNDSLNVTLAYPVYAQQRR

CC(C)N1CCN(Cc2cnc(-c3cc(-c4cccc5[nH]ccc45)cc4[nH]ncc34)o2)CC1 [nemiralisib]
Sputum IL-6 and IL-8 levels compared to placebo (sputum IL-6 and IL-8): did not significantly reduce | Reduction in PIP3 (PI3Kδ [1]): 35.7% | Target engagement (PI3Kδ [2]): demonstrated target engagement | Changes in target engagement or downstream inflammatory markers in induced sputum (PI3Kδ [3]): no meaningful changes | Primary and secondary endpoints ([4]; Phase IIb, patients with exacerbating COPD): neither the primary nor secondary endpoints were met | Most common adverse event ([4]; experienced post-inhalation and dose-related): cough | Sputum IL-5, IL-13, IL-6 or IL-8 compared to placebo [5]: did not yield statistically significant reductions

Cc1nc(Nc2cccc(N3CCCC3=O)n2)sc1-c1cc2c(c(S(C)(=O)=O)c1)C(=O)N([C@@H](C)C1CC1)C2 [AZD8154]
Efficacy in a rat model of airway inflammation (airway inflammation): demonstrated efficacy
